{"source": "patent US20180207111A1", "about": "“IMMUNOTHERAPY FOR CASR-EXPRESSING CANCER (E.G. NEUROBLASTOMA)” (HOSPITAL SANT JOAN DE DEU, priority 2015, published 2018)", "key": {"LA-N-1 xenografts [1]": {"tested_on": "LA-N-1 xenografts", "test": "Genome-wide expression analysis of xenografts, Affymetrix Human Gene Array 2.1 ST", "format": "in vivo", "conditions": "xenografts C4, C5, C7-C11 vs vehicle V5-V12, 10 mg/kg/day oral", "experimental": "(§1) Total RNA was isolated from 8 xenografts exposed to Cinacalcet (C) and 8 from the control group (V). These were the last 8 tumors excised in each group, so that analyzed xenografts were those exposed to the longest period of treatment (V5-V12 and C4-C11). Two different mRNA expression analyses were conducted: Genome-wide expression analysis by microarrays (Example 3) and by RT-qPCR (Example 4).\nGenome-wide expression analyses were performed using Affymetrix Human and Mouse Gene Array 2.1 ST (Affymetrix, reference number 902136 for human gene array and 902120 for mouse gene array) as per manufacturer's protocol. Procedures to analyze results included: Quality control of the arrays (following this step, xenograft C6 was removed from further analyses); filtering and normalization; selection of differentially expressed genes; single comparison (treated versus control samples); list of differentially expressed genes ranked by significance; Volcano plots showing the most differentially expressed genes; heatmaps of the clustered expression profiles; and analysis of biological significance through enrichment analysis against the Gene Ontologies, KEGG (Kyoto Encyclopedia of Genes and Genomes) and Ingenuity pathways.\nHowever, these differences of gene expression were not statistically significant, adjusted P-value >0.05 (Table 3). Nonetheless, in this first analysis, corresponding to heatmap on FIG. 3, it was apparent that a group of genes were specifically modulated in the three tumors exposed to Cinacalcet for the longest period of time. This was confirmed by a second genome-wide expression analysis that examined differentially expressed genes in these three specimens (C9-C11) compared to the 8 vehicle-treated tumors (V5-V12) (FIG. 4)."}, "SH-SY5Y CaSR/GFP": {"tested_on": "SH-SY5Y CaSR/GFP", "test": "RT-qPCR mRNA expression in SH-SY5Y CaSR/GFP neuroblastoma cells grown with Cinacalcet", "format": "cell-based, Homo sapiens", "conditions": "1 μM Cinacalcet vs DMSO, up to 21 days", "experimental": "Three neuroblastoma cell lines LA-N-1, SK-N-LP and SH-SY5Y were used for this purpose. […] No expression of the CaSR is detectable in SH-SY5Y either. Thus, SK-N-LP and SH-SY5Y were stably transfected with pCMV-CaSR-GFP or pCMV-GFP. All cell lines were grown in the presence of 1 μM Cinacalcet (Selleck Chemicals, S1260) or DMSO for 21 days in P100 plates. Morphology was assessed daily. Total RNA was isolated at days 1, 3, 5, 7, 10, 14 and 21. Several markers were analyzed by RT-qPCR using SYBRgreen and specific primers or Taqman technology and gene-specific Assays-on-Demand (Applied Biosystems) (Table 1).\nThese features reached maximal expression between days 7 and 14 (FIG. 1). […] Neuroblastoma cytodifferentiation is an indication of this tumor becoming more benign, less proliferative. […] Moreover, upregulation of these differentiation-associated genes and CTAs both in vitro and in vivo (see Examples 2-4) validates the proposed in vitro model (doses used, time of exposure, etc) as a good model to evaluate neuroblastoma response to treatment with Cinacalcet."}, "LA-N-1 xenografts [2]": {"tested_on": "LA-N-1 xenografts", "test": "RT-qPCR mRNA expression in xenografts", "format": "in vivo, human", "experimental": "as §1\nValidation of microarrays data was conducted by means of RT-qPCR. This technique was performed using SYBRgreen and specific primers or Taqman technology and gene-specific Assays-on-Demand (Applied Biosystems) (Table 1). This technique was also used to analyze the expression of other CTAs (members of the MAGE family and CTCFL), genes associated with differentiation and calcium-signaling pathways in further detail. Upregulation of CTCFL (FIG. 5A), MAGE A2, MAGE A3 and SSX4/48 (FIG. 5B), NTRK3 (FIG. 5C), ADCY8, PRKCA and RYR2 (FIG. 5D) was detected mainly in the two specimens exposed for the longest time to Cinacalcet (C10-C11)."}, "[3]": {"conditions": "xenografts, RT-qPCR, mainly in C10-C11 (longest exposure), FIG. 5B"}, "[4]": {"conditions": "xenografts, RT-qPCR, mainly in C10-C11 (longest exposure), FIG. 5D"}}, "data": [{"smiles": "C[C@@H](NCCCc1cccc(C(F)(F)F)c1)c1cccc2ccccc12", "note": "[Cinacalcet]", "values": [{"measurement": "Log fold change, probe 16837226 (SNORA38B)", "setting": "LA-N-1 xenografts [1]; adjusted P 0.35366385", "value": 1.107}, {"measurement": "Log fold change, probe 16902703 (POTEF)", "setting": "LA-N-1 xenografts [1]; adjusted P 0.35366385", "value": 1.124}, {"measurement": "Log fold change, probe 17103626 (GAGE12G//GAGE12F//GAGE12I//GAGE7//... GAGE family, Entrez 645073)", "setting": "LA-N-1 xenografts [1]; adjusted P 0.39648602", "value": 1.489}, {"measurement": "Log fold change, probe 17103647 (GAGE2A//GAGE2C//GAGE2B//GAGE2D//... GAGE family, Entrez 729447)", "setting": "LA-N-1 xenografts [1]; adjusted P 0.4625512", "value": 1.341}, {"measurement": "Log fold change, probe 17103679 (GAGE2A//GAGE2C//GAGE12G//GAGE12F//... GAGE family, Entrez 729447)", "setting": "LA-N-1 xenografts [1]; adjusted P 0.47520907", "value": 1.318}, {"measurement": "Log fold change, probe 17103614 (GAGE12J//GAGE2D//GAGE2E//GAGE8//... GAGE family, Entrez 729396)", "setting": "LA-N-1 xenografts [1]; adjusted P 0.52209349", "value": 1.191}, {"measurement": "Log fold change, probe 17103620 (GAGE13//GAGE12D//GAGE12E//GAGE12B//... GAGE family, Entrez 645051)", "setting": "LA-N-1 xenografts [1]; adjusted P 0.52209349", "value": 1.314}, {"measurement": "Log fold change, probe 17103653 (GAGE12C//GAGE12D//GAGE12E//GAGE12G//... GAGE family, Entrez 729422)", "setting": "LA-N-1 xenografts [1]; adjusted P 0.52209349", "value": 1.354}, {"measurement": "Log fold change, probe 17103655 (GAGE12C//GAGE12D//GAGE12E//GAGE12H//... GAGE family, Entrez 729422)", "setting": "LA-N-1 xenografts [1]; adjusted P 0.52209349", "value": 1.313}, {"measurement": "Log fold change, probe 17103673 (GAGE12G//GAGE12C//... GAGE family, Entrez 645073)", "setting": "LA-N-1 xenografts [1]; adjusted P 0.52209349", "value": 1.257}, {"measurement": "Log fold change, probe 17103690 (GAGE12H//GAGE12C//GAGE12D//GAGE12E//... GAGE family, Entrez 729442)", "setting": "LA-N-1 xenografts [1]; adjusted P 0.52209349", "value": 1.261}, {"measurement": "Log fold change, probe 16920617 (CTCFL)", "setting": "LA-N-1 xenografts [1]; adjusted P 0.61235652", "value": 1.137}, {"measurement": "Log fold change, probe 17104821 (CXorf49//CXorf49B)", "setting": "LA-N-1 xenografts [1]; adjusted P 0.61235652", "value": 1.423}, {"measurement": "CTCFL mRNA fold increase", "setting": "SH-SY5Y CaSR/GFP", "value": "no expression"}, {"measurement": "MAGEA2 mRNA fold increase", "setting": "SH-SY5Y CaSR/GFP", "value": 2.4, "unit": "fold"}, {"measurement": "MAGEA3 mRNA fold increase", "setting": "SH-SY5Y CaSR/GFP", "value": 14.6, "unit": "fold"}, {"measurement": "NFL mRNA fold increase", "setting": "SH-SY5Y CaSR/GFP", "value": 2.3, "unit": "fold"}, {"measurement": "NTRK1 mRNA fold increase", "setting": "SH-SY5Y CaSR/GFP", "value": 2.9, "unit": "fold"}, {"measurement": "NTRK3 mRNA fold increase", "setting": "SH-SY5Y CaSR/GFP", "value": 4.7, "unit": "fold"}, {"measurement": "S100-β mRNA fold increase", "setting": "SH-SY5Y CaSR/GFP", "value": 2.2, "unit": "fold"}, {"measurement": "SSX4/4B mRNA fold increase", "setting": "SH-SY5Y CaSR/GFP", "value": 3.45, "unit": "fold"}, {"measurement": "TUBB3 mRNA fold increase", "setting": "SH-SY5Y CaSR/GFP", "value": 1.7, "unit": "fold"}, {"measurement": "GAGE-P1 mRNA fold increase", "setting": "SH-SY5Y CaSR/GFP; primer pair GAGE P1", "value": 1.4, "unit": "fold"}, {"measurement": "GAGE-P2 mRNA fold increase", "setting": "SH-SY5Y CaSR/GFP; primer pair GAGE P2", "value": 7.9, "unit": "fold"}, {"measurement": "GAGE-P3 mRNA fold increase", "setting": "SH-SY5Y CaSR/GFP; primer pair GAGE P3", "value": 2.5, "unit": "fold"}, {"measurement": "Increase in relative mRNA expression of GAGE mRNA", "setting": "LA-N-1 xenografts [2]; xenograft specimen C11, long-term treatment, data not shown", "value": "up to 100 fold"}, {"measurement": "Relative mRNA expression of CTCFL", "setting": "LA-N-1 xenografts [2]; xenografts, RT-qPCR, mainly in C10-C11 (longest exposure), FIG. 5A", "value": "Upregulation"}, {"measurement": "Relative mRNA expression of MAGE A2", "setting": "LA-N-1 xenografts [2]; [3]", "value": "Upregulation"}, {"measurement": "Relative mRNA expression of MAGE A3", "setting": "LA-N-1 xenografts [2]; [3]", "value": "Upregulation"}, {"measurement": "Relative mRNA expression of SSX4/48", "setting": "LA-N-1 xenografts [2]; [3]", "value": "Upregulation"}, {"measurement": "Relative mRNA expression of NTRK3", "setting": "LA-N-1 xenografts [2]; xenografts, RT-qPCR, mainly in C10-C11 (longest exposure), FIG. 5C", "value": "Upregulation"}, {"measurement": "Relative mRNA expression of ADCY8", "setting": "LA-N-1 xenografts [2]; [4]", "value": "Upregulation"}, {"measurement": "Relative mRNA expression of PRKCA", "setting": "LA-N-1 xenografts [2]; [4]", "value": "Upregulation"}, {"measurement": "Relative mRNA expression of RYR2", "setting": "LA-N-1 xenografts [2]; [4]", "value": "Upregulation"}]}]}
